Laboratory results from ChEMBL document CHEMBL4043204, “meso-Dihydroguaiaretic acid derivatives with antibacterial and antimycobacterial activity” (Bioorg Med Chem, 2017).
≈ marks a conversion by molar mass, not a printed value. Calls of active or inactive are those of the source. No cut-off for these calls is given here.

Test system: not listed separately
Assay: Selectivity index, ratio of IC50 for cytotoxicity against African green monkey Vero cells to MIC for Mycobacterium tuberculosis H37Rv ATCC 27294
Type: toxicity, cell-based
Conditions: read-out: Selectivity Index

SMILES | selectivity ratio
COc1cc(C[C@@H](C)[C@@H](C)Cc2ccc(OC(C)=O)c(OC)c2)ccc1O (racemic) | 2.23
COc1cc(C[C@@H](C)[C@@H](C)Cc2ccc(OC(=O)c3ccccn3)c(OC)c2)ccc1O (racemic) | 1.3
COc1cc(C[C@@H](C)[C@@H](C)Cc2ccc(OCCN3CCCCC3)c(OC)c2)ccc1OCCN1CCCCC1 | 23.4
COc1cc(C[C@@H](C)[C@@H](C)Cc2ccc(OC)c(OC)c2)ccc1O (racemic) | 0.96

Test system: Staphylococcus haemolyticus
Assay: Antibacterial activity against linezolid-resistant Staphylococcus haemolyticus 2975 assessed as inhibition of microbial growth incubated for 24 hrs by microdilution assay
Type: functional
Conditions: Staphylococcus haemolyticus, 2975, 24 h

SMILES | MIC [µg/mL]
C[C@H]1COc2c(N3CCN(C)CC3)c(F)cc3c(=O)c(C(=O)O)cn1c23.C[C@H]1COc2c(N3CCN(C)CC3)c(F)cc3c(=O)c(C(=O)O)cn1c23.O [LEVOFLOXACIN] | 12.5
COc1cc(C[C@@H](C)[C@@H](C)Cc2ccc(OC(C)=O)c(OC)c2)ccc1O (racemic) | > 50
COc1cc(C[C@@H](C)[C@@H](C)Cc2ccc(OC(=O)c3ccccn3)c(OC)c2)ccc1O (racemic) | > 50
COc1cc(C[C@@H](C)[C@@H](C)Cc2ccc(OCCN3CCCCC3)c(OC)c2)ccc1OCCN1CCCCC1 | 50
COc1cc(C[C@@H](C)[C@@H](C)Cc2ccc(OC)c(OC)c2)ccc1O (racemic) | > 50

Test system: not listed separately
Assay: Selectivity index, ratio of IC50 for cytotoxicity against African green monkey Vero cells to MIC for antibacterial activity against methicillin-resistant Staphylococcus aureus (14-2095)
Conditions: not given

SMILES | Selectivity Index
C[C@H]1COc2c(N3CCN(C)CC3)c(F)cc3c(=O)c(C(=O)O)cn1c23.C[C@H]1COc2c(N3CCN(C)CC3)c(F)cc3c(=O)c(C(=O)O)cn1c23.O [LEVOFLOXACIN] | 93.81
COc1cc(C[C@@H](C)[C@@H](C)Cc2ccc(OC(C)=O)c(OC)c2)ccc1O (racemic) | 4.46
COc1cc(C[C@@H](C)[C@@H](C)Cc2ccc(OC(=O)c3ccccn3)c(OC)c2)ccc1O (racemic) | 2.6
COc1cc(C[C@@H](C)[C@@H](C)Cc2ccc(OCCN3CCCCC3)c(OC)c2)ccc1OCCN1CCCCC1 | 1.46
COc1cc(C[C@@H](C)[C@@H](C)Cc2ccc(OC)c(OC)c2)ccc1O (racemic) | 1.91

Test system: Enterococcus faecium
Assay: Antibacterial activity against vancomycin-resistant Enterococcus faecium (10-984) assessed as inhibition of microbial growth incubated for 24 hrs by microdilution assay
Type: functional
Conditions: not given

SMILES | MIC [µg/mL]
C[C@H]1COc2c(N3CCN(C)CC3)c(F)cc3c(=O)c(C(=O)O)cn1c23.C[C@H]1COc2c(N3CCN(C)CC3)c(F)cc3c(=O)c(C(=O)O)cn1c23.O [LEVOFLOXACIN] | > 50
COc1cc(C[C@@H](C)[C@@H](C)Cc2ccc(OC(C)=O)c(OC)c2)ccc1O (racemic) | > 50
COc1cc(C[C@@H](C)[C@@H](C)Cc2ccc(OC(=O)c3ccccn3)c(OC)c2)ccc1O (racemic) | > 50
COc1cc(C[C@@H](C)[C@@H](C)Cc2ccc(OCCN3CCCCC3)c(OC)c2)ccc1OCCN1CCCCC1 | 50
COc1cc(C[C@@H](C)[C@@H](C)Cc2ccc(OC)c(OC)c2)ccc1O (racemic) | > 50

Test system: Staphylococcus aureus
Assay: Antibacterial activity against methicillin-resistant Staphylococcus aureus (14-2095) assessed as inhibition of microbial growth incubated for 24 hrs by microdilution assay
Type: functional
Conditions: not given

SMILES | MIC [µg/mL]
C[C@H]1COc2c(N3CCN(C)CC3)c(F)cc3c(=O)c(C(=O)O)cn1c23.C[C@H]1COc2c(N3CCN(C)CC3)c(F)cc3c(=O)c(C(=O)O)cn1c23.O [LEVOFLOXACIN] | 3.12
COc1cc(C[C@@H](C)[C@@H](C)Cc2ccc(OC(C)=O)c(OC)c2)ccc1O (racemic) | 25
COc1cc(C[C@@H](C)[C@@H](C)Cc2ccc(OC(=O)c3ccccn3)c(OC)c2)ccc1O (racemic) | 25
COc1cc(C[C@@H](C)[C@@H](C)Cc2ccc(OCCN3CCCCC3)c(OC)c2)ccc1OCCN1CCCCC1 | 50
COc1cc(C[C@@H](C)[C@@H](C)Cc2ccc(OC)c(OC)c2)ccc1O (racemic) | 25

Test system: Staphylococcus epidermidis
Assay: Antibacterial activity against linezolid-resistant Staphylococcus epidermidis (14-583) assessed as inhibition of microbial growth incubated for 24 hrs by microdilution assay
Type: functional
Conditions: not given

SMILES | MIC [µg/mL]
C[C@H]1COc2c(N3CCN(C)CC3)c(F)cc3c(=O)c(C(=O)O)cn1c23.C[C@H]1COc2c(N3CCN(C)CC3)c(F)cc3c(=O)c(C(=O)O)cn1c23.O [LEVOFLOXACIN] | 12.5
COc1cc(C[C@@H](C)[C@@H](C)Cc2ccc(OC(C)=O)c(OC)c2)ccc1O (racemic) | > 50
COc1cc(C[C@@H](C)[C@@H](C)Cc2ccc(OC(=O)c3ccccn3)c(OC)c2)ccc1O (racemic) | > 50
COc1cc(C[C@@H](C)[C@@H](C)Cc2ccc(OCCN3CCCCC3)c(OC)c2)ccc1OCCN1CCCCC1 | > 50
COc1cc(C[C@@H](C)[C@@H](C)Cc2ccc(OC)c(OC)c2)ccc1O (racemic) | > 50

Test system: Klebsiella pneumoniae
Assay: Antibacterial activity against extended-spectrum beta-lactamase-positive Klebsiella pneumoniae (14-2081) assessed as inhibition of microbial growth up to 50 ug/ml incubated for 24 hrs by microdilution assay
Type: functional
Conditions: not given

SMILES | Activity
COc1cc(C[C@@H](C)[C@@H](C)Cc2ccc(OC(C)=O)c(OC)c2)ccc1O (racemic) | inactive
COc1cc(C[C@@H](C)[C@@H](C)Cc2ccc(OC(=O)c3ccccn3)c(OC)c2)ccc1O (racemic) | inactive
COc1cc(C[C@@H](C)[C@@H](C)Cc2ccc(OCCN3CCCCC3)c(OC)c2)ccc1OCCN1CCCCC1 | inactive
COc1cc(C[C@@H](C)[C@@H](C)Cc2ccc(OC)c(OC)c2)ccc1O (racemic) | inactive

Test system: Mycobacterium tuberculosis
Assay: Antimycobacterial activity against Mycobacterium tuberculosis H37Rv ATCC 27294 assessed as inhibition of mycobacterial growth incubated for 2 weeks by MABA method
Type: functional
Conditions: not given

SMILES | -logMIC
COc1cc(C[C@@H](C)[C@@H](C)Cc2ccc(OC(C)=O)c(OC)c2)ccc1O (racemic) | 4.07
COc1cc(C[C@@H](C)[C@@H](C)Cc2ccc(OC(=O)c3ccccn3)c(OC)c2)ccc1O (racemic) | 3.87
COc1cc(C[C@@H](C)[C@@H](C)Cc2ccc(OC)c(OC)c2)ccc1O (racemic) | 3.94

Same assay, conditions: Mycobacterium tuberculosis, H37Rv ATCC 27294, 336 h

SMILES | MIC [µg/mL]
C[C@H]1COc2c(N3CCN(C)CC3)c(F)cc3c(=O)c(C(=O)O)cn1c23.C[C@H]1COc2c(N3CCN(C)CC3)c(F)cc3c(=O)c(C(=O)O)cn1c23.O [LEVOFLOXACIN] | 0.078
COc1cc(C[C@@H](C)[C@@H](C)Cc2ccc(OC(C)=O)c(OC)c2)ccc1O (racemic) | 50 (≈ 134 µM)
COc1cc(C[C@@H](C)[C@@H](C)Cc2ccc(OC(=O)c3ccccn3)c(OC)c2)ccc1O (racemic) | 50 (≈ 115 µM)
COc1cc(C[C@@H](C)[C@@H](C)Cc2ccc(OCCN3CCCCC3)c(OC)c2)ccc1OCCN1CCCCC1 | 3.12 (≈ 5.65 µM)
COc1cc(C[C@@H](C)[C@@H](C)Cc2ccc(OC)c(OC)c2)ccc1O (racemic) | 50 (≈ 145 µM)

Test system: Klebsiella pneumoniae
Assay: Antibacterial activity against NDM-1 positive Klebsiella pneumoniae (14-3335) assessed as inhibition of microbial growth up to 50 ug/ml incubated for 24 hrs by microdilution assay
Type: functional
Conditions: not given

SMILES | Activity
COc1cc(C[C@@H](C)[C@@H](C)Cc2ccc(OC(C)=O)c(OC)c2)ccc1O (racemic) | inactive
COc1cc(C[C@@H](C)[C@@H](C)Cc2ccc(OC(=O)c3ccccn3)c(OC)c2)ccc1O (racemic) | inactive
COc1cc(C[C@@H](C)[C@@H](C)Cc2ccc(OCCN3CCCCC3)c(OC)c2)ccc1OCCN1CCCCC1 | inactive
COc1cc(C[C@@H](C)[C@@H](C)Cc2ccc(OC)c(OC)c2)ccc1O (racemic) | inactive

Test system: Escherichia coli
Assay: Antibacterial activity against oxacillin-resistant Escherichia coli OXA-48 assessed as inhibition of microbial growth up to 50 ug/ml incubated for 24 hrs by microdilution assay
Type: functional
Conditions: not given

SMILES | Activity
COc1cc(C[C@@H](C)[C@@H](C)Cc2ccc(OC(C)=O)c(OC)c2)ccc1O (racemic) | inactive
COc1cc(C[C@@H](C)[C@@H](C)Cc2ccc(OC(=O)c3ccccn3)c(OC)c2)ccc1O (racemic) | inactive
COc1cc(C[C@@H](C)[C@@H](C)Cc2ccc(OCCN3CCCCC3)c(OC)c2)ccc1OCCN1CCCCC1 | inactive
COc1cc(C[C@@H](C)[C@@H](C)Cc2ccc(OC)c(OC)c2)ccc1O (racemic) | inactive

Test system: Stenotrophomonas maltophilia
Assay: Antibacterial activity against trimethoprim-sulfamethoxazole-resistant Stenotrophomonas maltophilia assessed as inhibition of microbial growth up to 50 ug/ml incubated for 24 hrs by microdilution assay
Type: functional
Conditions: not given

SMILES | Activity
COc1cc(C[C@@H](C)[C@@H](C)Cc2ccc(OC(C)=O)c(OC)c2)ccc1O (racemic) | inactive
COc1cc(C[C@@H](C)[C@@H](C)Cc2ccc(OC(=O)c3ccccn3)c(OC)c2)ccc1O (racemic) | inactive
COc1cc(C[C@@H](C)[C@@H](C)Cc2ccc(OCCN3CCCCC3)c(OC)c2)ccc1OCCN1CCCCC1 | inactive
COc1cc(C[C@@H](C)[C@@H](C)Cc2ccc(OC)c(OC)c2)ccc1O (racemic) | inactive

Test system: Acinetobacter baumannii
Assay: Antibacterial activity against carbapenem-resistant Acinetobacter baumannii (12-666) assessed as inhibition of microbial growth up to 50 ug/ml incubated for 24 hrs by microdilution assay
Type: functional
Conditions: not given

SMILES | Activity
COc1cc(C[C@@H](C)[C@@H](C)Cc2ccc(OC(C)=O)c(OC)c2)ccc1O (racemic) | inactive
COc1cc(C[C@@H](C)[C@@H](C)Cc2ccc(OC(=O)c3ccccn3)c(OC)c2)ccc1O (racemic) | inactive
COc1cc(C[C@@H](C)[C@@H](C)Cc2ccc(OCCN3CCCCC3)c(OC)c2)ccc1OCCN1CCCCC1 | inactive
COc1cc(C[C@@H](C)[C@@H](C)Cc2ccc(OC)c(OC)c2)ccc1O (racemic) | inactive

Test system: Providencia rettgeri
Assay: Antibacterial activity against NDM-1 positive Providencia rettgeri assessed as inhibition of microbial growth up to 50 ug/ml incubated for 24 hrs by microdilution assay
Type: functional
Conditions: not given

SMILES | Activity
COc1cc(C[C@@H](C)[C@@H](C)Cc2ccc(OC(C)=O)c(OC)c2)ccc1O (racemic) | inactive
COc1cc(C[C@@H](C)[C@@H](C)Cc2ccc(OC(=O)c3ccccn3)c(OC)c2)ccc1O (racemic) | inactive
COc1cc(C[C@@H](C)[C@@H](C)Cc2ccc(OCCN3CCCCC3)c(OC)c2)ccc1OCCN1CCCCC1 | inactive
COc1cc(C[C@@H](C)[C@@H](C)Cc2ccc(OC)c(OC)c2)ccc1O (racemic) | inactive

Test system: Escherichia coli
Assay: Antibacterial activity against extended-spectrum beta-lactamase-positive Escherichia coli (14-2081) assessed as inhibition of microbial growth up to 50 ug/ml incubated for 24 hrs by microdilution assay
Type: functional
Conditions: not given

SMILES | Activity
COc1cc(C[C@@H](C)[C@@H](C)Cc2ccc(OC(C)=O)c(OC)c2)ccc1O (racemic) | inactive
COc1cc(C[C@@H](C)[C@@H](C)Cc2ccc(OC(=O)c3ccccn3)c(OC)c2)ccc1O (racemic) | inactive
COc1cc(C[C@@H](C)[C@@H](C)Cc2ccc(OCCN3CCCCC3)c(OC)c2)ccc1OCCN1CCCCC1 | inactive
COc1cc(C[C@@H](C)[C@@H](C)Cc2ccc(OC)c(OC)c2)ccc1O (racemic) | inactive

Test system: Vero
Assay: Cytotoxicity against African green monkey Vero cells assessed as reduction in cell viability incubated for 24 hrs by trypan blue staining based assay
Conditions: Chlorocebus sabaeus

SMILES | IC50 [µg/mL]
C[C@H]1COc2c(N3CCN(C)CC3)c(F)cc3c(=O)c(C(=O)O)cn1c23.C[C@H]1COc2c(N3CCN(C)CC3)c(F)cc3c(=O)c(C(=O)O)cn1c23.O [LEVOFLOXACIN] | 293
COc1cc(C[C@@H](C)[C@@H](C)Cc2ccc(OC(C)=O)c(OC)c2)ccc1O (racemic) | 112 (≈ 300 µM)
COc1cc(C[C@@H](C)[C@@H](C)Cc2ccc(OC(=O)c3ccccn3)c(OC)c2)ccc1O (racemic) | 65 (≈ 149 µM)
COc1cc(C[C@@H](C)[C@@H](C)Cc2ccc(OCCN3CCCCC3)c(OC)c2)ccc1OCCN1CCCCC1 | 73.2 (≈ 132 µM)
COc1cc(C[C@@H](C)[C@@H](C)Cc2ccc(OC)c(OC)c2)ccc1O (racemic) | 47.8 (≈ 139 µM)

Test system: Pseudomonas aeruginosa
Assay: Antibacterial activity against carbapenem-resistant Pseudomonas aeruginosa (13-1391) assessed as inhibition of microbial growth up to 50 ug/ml incubated for 48 hrs by microdilution assay
Type: functional
Conditions: not given

SMILES | Activity
COc1cc(C[C@@H](C)[C@@H](C)Cc2ccc(OC(C)=O)c(OC)c2)ccc1O (racemic) | inactive
COc1cc(C[C@@H](C)[C@@H](C)Cc2ccc(OC(=O)c3ccccn3)c(OC)c2)ccc1O (racemic) | inactive
COc1cc(C[C@@H](C)[C@@H](C)Cc2ccc(OCCN3CCCCC3)c(OC)c2)ccc1OCCN1CCCCC1 | inactive
COc1cc(C[C@@H](C)[C@@H](C)Cc2ccc(OC)c(OC)c2)ccc1O (racemic) | inactive
